Experiment [1] deals with Escherichia coli. The experiment is described as follows: Antibacterial activity against Escherichia coli ATCC 25922 assessed as reduction in microbial growth by CLSI based broth microdilution method. The format is functional. (Dilution methods test growth across graded concentrations, often in twofold steps.)
In experiment [2] the test system is Staphylococcus aureus. As to the kind of experiment: Antibacterial activity against Staphylococcus aureus A798 assessed as reduction in microbial growth by CLSI based broth microdilution method. In kind it is functional.
The subject of experiment [3] is Streptococcus pneumoniae. As to the kind of experiment: Antibacterial activity against Streptococcus pneumoniae assessed as reduction in microbial growth by CLSI based broth microdilution method. In kind it is functional.
The test system of experiment [4] is Neisseria gonorrhoeae. As to the kind of experiment: Antibacterial activity against Neisseria gonorrhoeae assessed as reduction in microbial growth by agar dilution method. In kind it is functional. (In general: In agar dilution the substance is mixed into plates at graded concentrations.)
Experiment [5] deals with Escherichia coli. As to the kind of experiment: Antibacterial activity against levofloxacin-susceptible Escherichia coli assessed as reduction in microbial growth by CLSI based broth microdilution method. The format is functional.
Experiment [6] relates to Streptococcus pneumoniae. As to the kind of experiment: Antibacterial activity against penicillin-intermediate Streptococcus pneumoniae assessed as reduction in microbial growth by CLSI based broth microdilution method. In kind it is functional.
The test system of experiment [7] is Haemophilus influenzae. As to the kind of experiment: Antibacterial activity against Haemophilus influenzae assessed as reduction in microbial growth by CLSI based broth microdilution method. In kind it is functional.
Experiment [8] deals with Staphylococcus aureus. The experiment is described as follows: Antibacterial activity against methicillin-resistant Staphylococcus aureus assessed as reduction in microbial growth by CLSI based broth microdilution method. The format is functional.
In experiment [9] the test system is Escherichia coli. The experiment is described as follows: Antibacterial activity against levofloxacin-nonsusceptible Escherichia coli assessed as reduction in microbial growth by CLSI based broth microdilution method. The format is functional.
The test system of experiment [10] is Escherichia coli. As to the kind of experiment: Antibacterial activity against Escherichia coli assessed as reduction in microbial growth by CLSI based broth microdilution method. The format is functional.
Experiment [11] concerns Staphylococcus aureus. As to the kind of experiment: Antibacterial activity against methicillin-sensitive Staphylococcus aureus assessed as reduction in microbial growth by CLSI based broth microdilution method. In kind it is functional.
Experiment [12] deals with Staphylococcus aureus. The experiment is described as follows: Antibacterial activity against Staphylococcus aureus assessed as reduction in microbial growth by CLSI based broth microdilution method. The format is functional.
Experiment [13] has as its system Staphylococcus aureus. The experiment is described as follows: Antibacterial activity against levofloxacin-resistant Staphylococcus aureus assessed as reduction in microbial growth by CLSI based broth microdilution method. In kind it is functional.
The subject of experiment [14] is Streptococcus pneumoniae. As to the kind of experiment: Antibacterial activity against levofloxacin-nonsusceptible Streptococcus pneumoniae assessed as reduction in microbial growth by CLSI based broth microdilution method. The format is functional.
Experiment [15] relates to Streptococcus pneumoniae. The experiment is described as follows: Antibacterial activity against penicillin-resistant Streptococcus pneumoniae assessed as reduction in microbial growth by CLSI based broth microdilution method. The format is functional.
The test system of experiment [16] is Streptococcus pneumoniae. The experiment is described as follows: Antibacterial activity against penicillin-susceptible Streptococcus pneumoniae assessed as reduction in microbial growth by CLSI based broth microdilution method. In kind it is functional.
Experiment [17] is described as follows: Inhibition of Escherichia coli DNA topoisomerase 4 using supercoiled pBR322 DNA as substrate by agarose gel electrophoresis method.
A short description of experiment [18]: Inhibition of Staphylococcus aureus N-terminal His6-tagged DNA gyrase B expressed in Escherichia coli BL21(DE3) cells using relaxed pBR322 DNA as substrate incubated for 1 hr by agarose gel electrophoresis method.
The subject of experiment [19] is Staphylococcus aureus. As to the kind of experiment: Antibacterial activity against Staphylococcus aureus assessed as reduction in microbial growth after 18 hrs by NCCLS based method. In kind it is functional.
Experiment [20] deals with Topoisomerase IV (Staphylococcus aureus, UniProt P0C1S7+P0C1U9). The experiment is described as follows: Inhibition of Staphylococcus aureus RN4220 DNA topoisomerase 4 expressed in Escherichia coli BL21(DE3) cells using supercoiled pBR322 DNA as substrate by agarose gel electrophoresis method.
Topoisomerase IV, sequence (P0C1U9 whole entry): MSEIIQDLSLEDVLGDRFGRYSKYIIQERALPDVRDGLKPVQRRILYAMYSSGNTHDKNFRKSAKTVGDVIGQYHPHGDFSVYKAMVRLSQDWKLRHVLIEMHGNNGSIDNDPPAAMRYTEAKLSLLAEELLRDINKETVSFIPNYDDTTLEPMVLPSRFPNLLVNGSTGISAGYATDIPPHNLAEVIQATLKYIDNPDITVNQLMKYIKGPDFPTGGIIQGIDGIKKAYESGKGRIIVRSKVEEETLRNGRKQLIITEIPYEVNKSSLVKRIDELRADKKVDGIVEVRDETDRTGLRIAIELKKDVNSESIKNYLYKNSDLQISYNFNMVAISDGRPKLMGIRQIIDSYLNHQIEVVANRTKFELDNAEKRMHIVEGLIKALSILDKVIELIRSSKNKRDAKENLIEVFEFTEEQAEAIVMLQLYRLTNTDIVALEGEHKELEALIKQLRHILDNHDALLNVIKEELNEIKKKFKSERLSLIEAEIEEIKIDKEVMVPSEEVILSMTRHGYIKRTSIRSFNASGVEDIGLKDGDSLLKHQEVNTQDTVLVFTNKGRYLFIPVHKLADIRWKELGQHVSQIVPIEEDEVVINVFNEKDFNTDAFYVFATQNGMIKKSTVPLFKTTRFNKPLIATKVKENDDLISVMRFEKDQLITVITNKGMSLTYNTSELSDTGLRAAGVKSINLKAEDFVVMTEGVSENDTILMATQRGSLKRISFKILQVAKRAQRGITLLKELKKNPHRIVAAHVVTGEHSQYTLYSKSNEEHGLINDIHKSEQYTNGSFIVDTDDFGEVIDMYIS
Topoisomerase IV, sequence (P0C1S7 whole entry): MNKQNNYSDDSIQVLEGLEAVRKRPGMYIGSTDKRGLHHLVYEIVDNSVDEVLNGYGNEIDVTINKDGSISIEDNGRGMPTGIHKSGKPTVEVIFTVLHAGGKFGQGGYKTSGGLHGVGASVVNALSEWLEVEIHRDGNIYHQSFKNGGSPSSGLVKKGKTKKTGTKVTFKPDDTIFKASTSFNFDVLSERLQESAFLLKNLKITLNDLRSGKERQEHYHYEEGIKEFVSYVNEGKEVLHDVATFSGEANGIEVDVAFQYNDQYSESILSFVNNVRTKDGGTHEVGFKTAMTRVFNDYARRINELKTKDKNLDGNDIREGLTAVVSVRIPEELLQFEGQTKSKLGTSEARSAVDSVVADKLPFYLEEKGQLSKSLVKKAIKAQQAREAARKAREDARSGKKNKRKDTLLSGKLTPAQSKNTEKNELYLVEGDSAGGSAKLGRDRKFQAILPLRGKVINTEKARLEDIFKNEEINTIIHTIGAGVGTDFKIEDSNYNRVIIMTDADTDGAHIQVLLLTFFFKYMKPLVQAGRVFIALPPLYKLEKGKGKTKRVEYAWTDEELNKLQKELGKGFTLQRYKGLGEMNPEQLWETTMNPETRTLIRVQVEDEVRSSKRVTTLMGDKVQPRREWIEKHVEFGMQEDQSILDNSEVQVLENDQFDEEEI

For three compounds, MIC, MIC90 and IC50 results are on record in ChEMBL document CHEMBL4616617, “Two Decades of Successful SAR-Grounded Stories of the Novel Bacterial Topoisomerase Inhibitors (NBTIs)” (J Med Chem, 2020).

The structures appear in SMILES notation.

Usually MIC stands for the least concentration at which growth counts as inhibited. `CN1CC(Oc2cccc(-c3cccc(CNCC[C@@H]4CN(c5ccc6c(n5)NC(=O)CO6)C(=O)O4)c3)n2)C1`: the MIC in [1] and in experiment [2] was 0.25 µg/mL throughout.
Regarding `O=c1ccc2ncc(=O)n3c2n1C[C@H]3CN1CCC(NCc2cc3c(cn2)OCCC3)CC1` [GEPOTIDACIN], the MIC90 in experiment [3] came to 0.25 µg/mL; in experiment [4], 0.25 µg/mL; in [5], 2 µg/mL; in [6], 0.25 µg/mL; in experiment [7] it was 1 µg/mL; in [8], 0.5 µg/mL. For the same compound, the MIC90 came out at 2 µg/mL in experiment [9]; 2 µg/mL in [10]; 0.5 µg/mL in experiment [11]; 0.5 µg/mL in experiment [12]; 0.5 µg/mL in [13]; 0.25 µg/mL in experiment [14]. In addition, the MIC90 in experiment [15] and in experiment [16] was 0.25 µg/mL throughout.
What is called IC50 is the concentration that inhibits the measured activity by half. A lower IC50 goes with greater potency. Take `COc1ccc2ncc(F)c([C@@H](O)CC[C@@H]3CCN(CCSc4cccs4)C[C@@H]3C(=O)O)c2c1`: the IC50 in [17] turned out to be 200 nM; in experiment [18], 1000 nM; in [20], 300 nM. The MIC in [19] lay in the range of 0.12 to 1 µg/mL.
